Reference: paper PMC12069643, “Structural insights into the selective recognition of RF-amide peptides by neuropeptide FF receptor 2” (EMBO Reports, 2025)

What was measured:
Format in all cases: cell-based
[1] = target: T1, NPFFR1-chimera (Q37^NtL/I293^6.58S/T307^7.31N) (Homo sapiens, UniProt Q9GZQ6, I293S/Q37L/T307N); experiment: GloSensor forskolin-stimulated cAMP assay, NPFFR1 triple mutant (chimera Q37NtL/I2936.58S/T3077.31N); settings: HEK293T, 0.5 μM forskolin, three independent experiments
T1 construct: expressed in transfected cells; host or cells: HEK293T
Protocol: Figure 4 RF-amide ligand selectivity of NPFFR2 and NPFFR1. (A) Sequence alignment between human NPFFs and RFRPs, the endogenous ligands of NPFFRs, which share PXRF-NH2 motif at their C-terminus (shown in green letters). Key residues at the fifth and sixth positions from the C-terminus, are highlighted in bold. […] (B) The concentration-dependent response of various agonists on NPFFR1 was measured using a forskolin-stimulated cAMP assay. Data points represent the mean values from three independent experiments (each with technical triplicate), with error bars indicating SEM. Raw data were normalized to the vehicle-treated (0%) and 0.5 μM forskolin-treated (100%) responses. (C) Structural comparison between the binding modes of hNPSF to NPFFR2 and GnIH to NPFFR1. An AlphaFold2 prediction model of the GnIH–NPFFR1 complex was generated using the hNPSF–NPFFR2 complex structure as a template. The hydrophobicity of NPFFRs is shown with surface representation, where purple indicates hydrophilic regions and bronze indicates hydrophobic regions. […] (D) The cAMP response to the ligands hNPSF and GnIH was measured for both wild-type NPFFR1 and a mutant form of NPFFR1 using a forskolin-stimulated cAMP assay. […] Symbols represent mean values from three independent experiments, each conducted in technical triplicates, with error bars indicating SEM. Responses were normalized to vehicle-treated controls (0%) and 0.5 μM forskolin-treated controls (100%). Source data are available online for this figure.
To further validate whether these specific residues in NPFFR1 affect ligand selectivity, we generated a triple mutant of NPFFR1, in which residues Q37^Nt, I293^6.58, and T307^7.31 of NPFFR1 were replaced by the corresponding NPFFR2 residues, Leu, Ser, and Asn, respectively (Appendix Fig. S10). […]
HEK293T cells were seeded at a density of 6 × 10^5 cells per well in a six-well cell culture plate (SPL) and co-transfected with expression plasmids encoding GloSensor™ and each NPFFR construct, using 1 µg to 4 µg of DNA per well according to the Lipofectamine™ 2000 Transfection Reagent (Invitrogen) protocol. […] Luminescence signals were measured using a Mithras LB940 instrument (Berthold) with a measurement time of 1 s per well.
Data from the GloSensor^TM cAMP signaling assays were analyzed using GraphPad Prism with a three-parameter logistic model to fit concentration-response curves for both wild-type (WT) and mutant receptors. Mutant expression levels and DNA amounts were adjusted to match WT conditions. ΔpEC50 values were calculated by subtracting the log EC50 of the WT receptor from that of each mutant. […] Statistical significance was assessed using one-way ANOVA, followed by Dunnett’s tests comparisons to the WT receptor. […]

[2] = target: T2, NPFFR2 mutants (Homo sapiens, UniProt Q9Y5X5, E310A); experiment: GloSensor forskolin-stimulated cAMP assay, NPFFR2 mutants; settings: NPFFR2 E20845.52A, HEK293T, three independent experiments
T2 construct: expressed in transfected cells; host or cells: HEK293T (pcDNA3.1 NPFFR2 mutants)
Description: (§1) Figure 2 Interaction of hNPSF with NPFFR2. (A) Residues participating in the interactions between hNPSF and NPFFR2 in the transmembrane (TM) binding pocket are shown as sticks. Dashed lines indicate polar interactions and hydrogen bonds between residues. Zoomed-in views highlighting interactions of the C-terminal segment (residues −1 to −4, PQRF), middle segment (residues −5 to −8, FLFQ), and the N-terminal segment (residues −9 to −11, SQA) of hNPSF are enclosed in red, blue, and yellow boxes, respectively. (B) NPFFR2 residues interacting with hNPSF were mutated to alanine, and the impact of each mutation on the EC50 value (ΔpEC50) was investigated using a forskolin-stimulated cAMP assay, after confirming surface expression of each mutant by an ELISA-based surface expression assay (Appendix Fig. S5). Three independent experiments (with technical triplicates) were conducted for each mutant. The bar graphs represent the mean of ΔpEC50 values from each experiment, with error bars indicating SEM. Statistical analyses were performed using ordinary one-way ANOVA followed by Dunnett’s test, comparing to the wild-type response. ns (not significant, P > 0.05); *P < 0.05; **P < 0.01; ***P < 0.001. Source data are available online for this figure.
(§2) HEK293T cells were seeded at a density of 6 × 10^5 cells per well in a six-well cell culture plate (SPL) and co-transfected with expression plasmids encoding GloSensor™ and each NPFFR construct, using 1 µg to 4 µg of DNA per well according to the Lipofectamine™ 2000 Transfection Reagent (Invitrogen) protocol. After 48 h of incubation under standard conditions (37 °C, 5% CO2), the cells were detached using Accutase solution (Sigma-Aldrich) and washed with PBS. The cells were then pelleted by centrifugation, resuspended in CO2-independent medium (Gibco) supplemented with Firefly D-Luciferin (0.5 mg/ml, NanoLight), and distributed into a 96-well white plate (SPL). After a 2-hour incubation, serially diluted ligands and 0.5 μM forskolin were added to each well to detect ligand-induced signaling. Luminescence signals were measured using a Mithras LB940 instrument (Berthold) with a measurement time of 1 s per well.
(§3) Data from the GloSensor^TM cAMP signaling assays were analyzed using GraphPad Prism with a three-parameter logistic model to fit concentration-response curves for both wild-type (WT) and mutant receptors. Mutant expression levels and DNA amounts were adjusted to match WT conditions. ΔpEC50 values were calculated by subtracting the log EC50 of the WT receptor from that of each mutant. Results are presented as mean ± SEM from three independent biological replicates, each performed in duplicate or more. Error bars represent the SEM. Statistical significance was assessed using one-way ANOVA, followed by Dunnett’s tests comparisons to the WT receptor. Significance levels were reported as follows: ns (not significant, P > 0.05); *P < 0.05; **P < 0.01; ***P < 0.001.
(§4) Appendix Figure S5. GloSensorTM cAMP assays of mutants and wild-type NPFFR2.
(§5) The dose-response of cAMP assay data for each mutant (red) presented in Fig. 2B are compared against the wild-type NPFFR2 (blue). Each experiment was conducted after adjusting the mutant's expression level to that of the wild-type NPFFR2 (Appendix Fig. S3), and pcDNA3.1 was used to match the total amount of DNA transfected. Data points represent mean values from three independent experiments (each with technical triplicate), with error bars indicating SEM. Raw data were normalized to the vehicle -treated (0%) and 0.5 μM forskolin-treated (100%) responses.
(§6) (% of forskolin stimulation) […]

[3] = target: T3, NPFFR2 mutants (Homo sapiens, UniProt Q9Y5X5, F425A); experiment: as above; settings: NPFFR2 F3237.43A, HEK293T, three independent experiments
T3 construct: expressed in transfected cells; host or cells: HEK293T (pcDNA3.1 NPFFR2 mutants)
Description: as §1, §2, §3, §4, §5, §6

[4] = target: T4, NPFFR2 mutants (Homo sapiens, UniProt Q9Y5X5, R318A); experiment: as above; settings: NPFFR2 R2165.35A, HEK293T, three independent experiments
T4 construct: expressed in transfected cells; host or cells: HEK293T (pcDNA3.1 NPFFR2 mutants)
Description: as §1, §2, §3, §4, §5, §6

T4 sequence (Q9Y5X5 103-522 R318A): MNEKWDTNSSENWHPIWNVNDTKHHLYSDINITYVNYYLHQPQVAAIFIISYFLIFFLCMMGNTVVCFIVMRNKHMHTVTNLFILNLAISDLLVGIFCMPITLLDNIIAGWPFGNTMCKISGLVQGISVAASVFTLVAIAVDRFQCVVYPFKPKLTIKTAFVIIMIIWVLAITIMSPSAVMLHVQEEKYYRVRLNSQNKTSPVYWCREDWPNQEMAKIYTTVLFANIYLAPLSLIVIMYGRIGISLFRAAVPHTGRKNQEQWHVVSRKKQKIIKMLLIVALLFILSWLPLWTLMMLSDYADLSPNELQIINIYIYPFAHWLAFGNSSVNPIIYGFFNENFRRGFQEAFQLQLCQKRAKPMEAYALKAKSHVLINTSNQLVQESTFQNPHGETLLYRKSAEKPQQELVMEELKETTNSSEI
T3 sequence (Q9Y5X5 103-522 F425A): as the sequence (Q9Y5X5 103-522 R318A) above, with A216R, F323A counted along it
T1 sequence (Q9GZQ6 whole entry Q37L/I293S/T307N): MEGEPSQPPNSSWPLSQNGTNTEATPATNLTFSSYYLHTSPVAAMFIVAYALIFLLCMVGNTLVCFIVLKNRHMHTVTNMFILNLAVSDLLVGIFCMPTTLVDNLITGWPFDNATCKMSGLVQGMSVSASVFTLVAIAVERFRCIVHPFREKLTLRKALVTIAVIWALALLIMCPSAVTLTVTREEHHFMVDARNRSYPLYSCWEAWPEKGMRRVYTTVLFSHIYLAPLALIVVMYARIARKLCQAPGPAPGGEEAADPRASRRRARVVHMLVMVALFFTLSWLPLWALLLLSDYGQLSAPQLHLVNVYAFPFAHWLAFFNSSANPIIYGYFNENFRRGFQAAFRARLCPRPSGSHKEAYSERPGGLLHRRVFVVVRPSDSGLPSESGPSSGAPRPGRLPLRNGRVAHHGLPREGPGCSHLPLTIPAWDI
T2 sequence (Q9Y5X5 103-522 E310A): as the sequence (Q9Y5X5 103-522 R318A) above, with E208A, A216R counted along it

EC50 [1]: 0.0316 µM
Emax ([1]; HEK-293T): 78 ± 2%
Emax ([2]; HEK-293T): 29 ± 11%
EC50 [2]: 3.98 µM
Emax ([3]; HEK-293T): 81 ± 3%
EC50 [3]: 0.398 µM
Emax ([4]; HEK-293T): 85 ± 3%
EC50 [4]: 0.01 µM
Compound: CC(C)C[C@H](NC(=O)[C@H](Cc1ccccc1)NC(=O)[C@H](C)NC(=O)[C@H](CCC(N)=O)NC(=O)[C@@H](N)CO)C(=O)N[C@@H](Cc1ccccc1)C(=O)N[C@@H](CCC(N)=O)C(=O)N1CCC[C@H]1C(=O)N[C@@H](CCC(N)=O)C(=O)N[C@@H](CCCNC(=N)N)C(=O)N[C@@H](Cc1ccccc1)C(N)=O [hNPSF]
